Values joined by “and” are separate entries in the source; they are usually repeats but may differ in a detail not shown here. Identical values can stand only once. Like-named read-outs stand apart in the source and are kept apart here.
Columns and labels:
[1] = Toxicity study in uninfected mice after intratracheal powder; type: in vivo, BALB/c mice; conditions: 1 mg powder intratracheally
Protocol: HPBCD only powder was prepared according to the same protocol as A2-TFN but without the addition of tamibarotene and tert-butyl alcohol. One milligram of A2-TFN powder or HPBCD powder, or 50 μL of phosphate buffer saline (PBS) was intratracheally administered in healthy BALB/c mice under anesthesia.

[2] = Dissolution study of fine particle dose in simulated lung fluid; type: physicochemical
Protocol: The dissolution profile of A2-TFN powders was investigated using a jacketed beaker which contained 100 mL of simulated lung fluid as dissolution medium. The preparation of simulated lung fluid was according to Marques et al. (SLF3 in the article). The temperature was maintained at 37° C. and the medium was stirred at 75 rpm with a magnetic bar. As fine particle dose (FPD, aerodynamic diameter<5 μm) is considered to be the fraction of powder that can deposit in the deep lung region, the FPD of A2-TFN formulation was collected by a Fast Screening Impactor (FSI, Copley Scientific, UK) coupled with Breezhaler® as described before for dissolution study. Approximately 8.5±0.5 mg of A2-TFN powder was dispersed by FSI to separate an FPD (which contained an estimated amount of 0.5 mg of tamibarotene). The powders were placed on a glass fiber filter paper which was then transferred into the jacketed beaker. At pre-determined time intervals, 1 mL of dissolution medium was withdrawn and filtered through 0.45-μm membrane filter. Equal volume of pre-warmed fresh medium was refilled immediately. The unformulated tamibarotene powder was included as control for comparison. The concentration of tamibarotene was quantified by HPLC as described above. The dissolution study was carried out in triplicate.

[3] = tested on: H1N1 virus; test: Plaque reduction assay for antiviral EC50, MDCK cells; type: cell-based; conditions: Influenza A virus
[4] = plasma, i.p. drug suspension, 5 mg/kg tamibarotene, n=5
[5] = tested on: SARS-CoV-2; test: Plaque reduction assay for antiviral EC50, Vero E6 cells; type: cell-based; conditions: Severe acute respiratory syndrome coronavirus 2, Vero C1008
Protocol: Plaque reduction assay was performed to plot the 50% antiviral effective dose (EC50). Vero E6 cells were used for SARS-CoV-2 and MDCK cells for influenza A virus. Briefly, cells were seeded at 4×10^5 cells/well in 12-well tissue culture plates on the day before carrying out the assay. After 24 h of incubation, 50 p.f.u. of SARS-CoV-2 or H1N1 virus were added to the cell monolayer with or without the addition of drug compounds and the plates were further incubated for 1 h at 37° C. in 5% CO2 before removal of unbound viral particles by aspiration of the media and washing once with DMEM. Monolayers were then overlaid with media containing 1% low melting agarose (Cambrex Corporation, New Jersey, USA) in DMEM and appropriate concentrations of individual compound, inverted and incubated as above for another 72 h. The wells were then fixed with 10% formaldehyde (BDH, Merck, Darmstadt, Germany) overnight. After removal of the agarose plugs, the monolayers were stained with 0.7% crystal violet (BDH, Merck) and the plaques counted. The percentage of plaque inhibition relative to the control (i.e., without the addition of compound) wells were determined for each drug compound concentration. The EC50 was calculated using Sigma plot (SPSS) in an Excel add-in ED50V10. The plaque reduction assay experiments were performed in triplicate and repeated twice for confirmation.

[6] = tested on: H1N1 virus; test: In vivo therapeutic effect against H1N1 virus, intranasal treatment; parameters: species or system BALB/c mice; conditions: for Viral RNA load in lung compared with PBS group: 3 d.p.i., zanamivir 2 mg/kg i.n., one-way ANOVA; for Viral RNA load in lung compared with PBS group / Survival rate: tamibarotene 0.1 mg/kg; for Survival rate: 14 d.p.i., five i.n. doses from 4 h post 10 p.f.u. H1N1, zanamivir 2 mg/kg, n=7; for Survival rate compared with PBS group: Log-rank test, p<0.01
Protocol: To evaluate the therapeutic effect of tamibarotene formulation against H1N1 virus, BALB/c mice were i.n. inoculated with 20 μL of virus suspension containing 10 p.f.u. of H1N1 virus under anaesthesia. At 4 h post virus challenge, the first therapeutic dose was initiated and the mice were divided into four groups (11 mice per group) to receive 20 μL of each treatment via i.n. administration: (i) zanamivir solution (2 mg/mL); (ii) unformulated tamibarotene suspension (100 μg/mL); (iii) reconstituted A2-TFN solution (100 μg/mL); and (iv) PBS (as negative control). The dose of tamibarotene was 0.1 mg/kg, and the dose of zanamivir was 2 mg/kg. On day 1 and day 2 post-infection, the therapeutic doses were administered twice a day. On 3 d.p.i., four mice in each group were euthanatized randomly and the lung tissues were harvested for viral load assay by qRT-PCR method. Animal survival, clinical symptoms and body weight were monitored for 14 days or until the humane endpoint (body weight loss more than 20%) was reached. This experiment was conducted in two independent experiments (n=11 in each group).

[7] = tested on: MERS-CoV; conditions: from Yuan, et al., Nature Communications 2019, 10, 120; cited from earlier work
[8] = in vivo; conditions: BALB/c, mouse, ip, 5 mg/kg; for AUC(0-t): AUC0-8 h; for AUC(0-inf): AUC0-∞—D; for MRT last: MRT0-8 h
[9] = tested on: influenza A H1N1 virus; test: In vivo prophylactic protection against H1N1 virus; parameters: species or system BALB/c mice; conditions: for Lung histopathology (H&E) / Viral PA protein expression in lung (immunofluorescence): 3 d.p.i., data not shown; for Viral RNA load in lung tissues compared with PBS: day 3 post-challenge, 5 mg/kg i.t., one-way ANOVA; for Survival rate compared with PBS group: log-rank test, p<0.01
Protocol: BALB/c mice were used to investigate the in vivo activity of A2-TFN formulation against influenza A H1N1 virus. The mice were evaluated in divided into four groups (nine mice per group). Prior to virus inoculation, i.t. administration was performed under anesthesia in each group: (i) 20 μL of zanamivir solution (5 mg/mL); (ii) 50 μL of unformulated tamibarotene suspension (2 mg/mL); and (iii) 1 mg of A2-TFN powder. The dose of zanamivir or tamibarotene was 5 mg/kg per mouse. In the fourth group of mice, 50 μL of PBS was i.t. administered as negative control. At 2 h post administration, all the mice were i.n. inoculated with 20 μL of virus suspension containing 100 p.f.u. of HIN virus under anesthesia. Four mice in each group were euthanatized randomly on 3 d.p.i. and the lung tissues were harvested for viral load assay by qRT-PCR method. Animal survival, clinical symptoms and body weight were monitored for 14 days or until the humane endpoint (body weight loss more than 20%) was reached. The lung tissue histopathology of infected mice was examined by hematoxylin and eosin (H&E) and immunofluorescence staining. This experiment was conducted in two independent experiments (n=9 in each group).

[10] = lung, i.p. drug suspension, 5 mg/kg tamibarotene
[11] = plasma, i.p. drug suspension, 5 mg/kg tamibarotene

Compound: 2-hydroxypropyl-β-cyclodextrin [HPβCD]
- Body weight of uninfected mice [1]: recovered more rapidly than A2-TFN group
- Toxicity in lung histopathology of uninfected mice ([1]; data not shown): No marked toxicity

Compound: CC1(C)CCC(C)(C)c2cc(NC(=O)c3ccc(C(=O)O)cc3)ccc21 [tamibarotene]
- Cumulative dissolved drug after 24 h compared with A2-TFN powder ([2]; Student's t-test, p<0.01): significantly lower
- Drug dissolved ([2]; within the first hour, 37° C.): approximately 20%
- EC50 [3]: 1680 ± 980 nM
- Cmax [4]: 14.2 ± 0.9 µM
- EC50 [5]: 5800 ± 1200 nM
- Viral RNA load in lung compared with PBS group [6]: significantly lower
- Survival rate [6]: 71%
- Survival rate compared with PBS group [6]: significantly higher
- EC50 [7]: 320 ± 26 nM
- Tmax [8]: 30 min
- AUC(0-t) [8, 10]: 2400 ± 300 ng·h/mL
- AUC(0-t) [8, 11]: 6000 ± 500 ng·h/mL
- AUC(0-inf) [8, 10]: 500 ± 60 ng·h/mL
- AUC(0-inf) [8, 11]: 1500 ± 200 ng·h/mL
- Cmax ([8]; Cmax, lung, i.p. drug suspension, 5 mg/kg tamibarotene, n=5): 7.4 µM and 2600 ng/mL
- MRT last [8, 10]: 36 ± 12 min
- MRT last [8, 11]: 90 ± 12 min
- half-life ([8]; T1/2, lung, i.p. drug suspension, 5 mg/kg tamibarotene): 30 ± 4.8 min
- half-life ([8]; T1/2, plasma, i.p. drug suspension, 5 mg/kg tamibarotene): 108 ± 24 min
- Lung histopathology (H&E) [9]: Severe alveolar damage and interstitial inflammatory infiltration
- Viral PA protein expression in lung (immunofluorescence) [9]: diminished but remained noticeable in bronchiolar epithelial cells
- Viral RNA load in lung tissues compared with PBS [9]: significantly lower
- Survival rate compared with PBS group [9]: significantly higher
- Time by which all mice reached humane endpoint ([9]; single i.t. dose 5 mg/kg 2 h before 100 p.f.u. H1N1): < 9 d.p.i.

Compound: CC(=O)N[C@H]1[C@H]([C@H](O)[C@H](O)CO)OC(C(=O)O)=C[C@@H]1N=C(N)N [zanamivir]
- Viral RNA load in lung compared with PBS group [6]: not been significantly different
- Survival rate [6]: 86%
- Survival rate compared with PBS group [6]: significantly higher
- Lung histopathology (H&E) [9]: alleviated
- Viral PA protein expression in lung (immunofluorescence) [9]: diminished but remained noticeable in bronchiolar epithelial cells
- Survival rate ([9]; 14 d.p.i., single i.t. dose 5 mg/kg 2 h before 100 p.f.u. H1N1, n=5): 60%
- Viral RNA load in lung tissues compared with PBS [9]: no significant difference
- Survival rate compared with PBS group [9]: significantly higher

— patent US20220378727A1 (priority 2021, published 2022)
